According to patent US10501518B2 (priority 2013, dated 2019):
Where two headings read alike, the source gives them in different places. Starred links: 1 amine or outer side, 2 acyl side, 3 side chain; linkers in the order of their positions; H or OH if unused. Non-standard residues stand in square brackets, D forms with d. Residues, ends and D or L forms follow the SMILES beside them. X13 = O=C([C@H]1CNC[C@@H]1N[*:1])[*:2]; β3hA = C[C@H](N)CC(=O)O

What was measured:
delNT PTHR1 = target: T1, delNT PTHR1 (Homo sapiens, UniProt Q03431, DEL24-181); test: cAMP-inducing potency at truncated receptor delNT PTHR1; assay type: cell-based; conditions: Table 8; EC50 relative to PTH(1-34)
T1 construct: expressed in transfected cells
T1 sequence (Q03431 with tags, fused parts or gaps DEL24-181): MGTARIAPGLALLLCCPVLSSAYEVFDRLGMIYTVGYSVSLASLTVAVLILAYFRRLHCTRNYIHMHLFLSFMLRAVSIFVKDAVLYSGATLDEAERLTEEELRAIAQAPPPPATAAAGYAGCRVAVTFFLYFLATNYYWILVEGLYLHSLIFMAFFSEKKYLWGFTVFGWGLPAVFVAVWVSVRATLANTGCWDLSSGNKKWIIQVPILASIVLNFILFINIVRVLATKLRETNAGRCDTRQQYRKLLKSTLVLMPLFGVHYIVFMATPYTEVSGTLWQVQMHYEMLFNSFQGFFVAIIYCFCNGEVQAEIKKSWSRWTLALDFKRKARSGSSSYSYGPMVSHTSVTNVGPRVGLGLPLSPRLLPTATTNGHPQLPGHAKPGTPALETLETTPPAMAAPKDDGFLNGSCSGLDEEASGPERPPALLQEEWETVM

WT human PTHR-1 = target: T2, WT human PTHR-1 (Homo sapiens, UniProt Q03431); test: cAMP GloSensor dose-response in GP-2.3 cells expressing human PTHR-1; assay type: cell-based; conditions: for Fold PTH, nM (hPTHR1): EC50 relative to PTH(1-34)
T2 construct: bioactivity of the resulting compound in full-length hPTHR-1 and a truncated version; expressed in transfected cells
T2 sequence (Q03431 27-593): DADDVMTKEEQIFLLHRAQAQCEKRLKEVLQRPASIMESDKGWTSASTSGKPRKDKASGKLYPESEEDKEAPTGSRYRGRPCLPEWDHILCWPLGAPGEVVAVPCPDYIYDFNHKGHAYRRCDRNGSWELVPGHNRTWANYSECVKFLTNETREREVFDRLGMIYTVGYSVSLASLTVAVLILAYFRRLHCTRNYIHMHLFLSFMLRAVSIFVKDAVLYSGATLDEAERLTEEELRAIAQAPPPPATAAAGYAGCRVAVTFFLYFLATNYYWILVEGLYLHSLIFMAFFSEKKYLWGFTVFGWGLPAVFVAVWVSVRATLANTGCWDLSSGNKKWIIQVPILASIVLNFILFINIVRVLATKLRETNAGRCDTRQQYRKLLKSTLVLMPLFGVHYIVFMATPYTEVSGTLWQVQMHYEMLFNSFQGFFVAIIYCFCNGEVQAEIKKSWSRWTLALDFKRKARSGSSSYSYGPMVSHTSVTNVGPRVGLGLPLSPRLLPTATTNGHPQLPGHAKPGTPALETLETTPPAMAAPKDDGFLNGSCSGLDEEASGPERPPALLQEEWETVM
In short: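 Confluent cells preloaded with 0.5 mM d-luciferin at room temperature until luminescence baseline stabilised (30 min), then given varying agonist concentrations. Luminescence time course recorded after α/β-peptide addition. Means ±SEM of n>4 experiments, each in duplicate.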

WT rat PTHR-1 = target: T3, WT rat PTHR-1 (Rattus norvegicus, UniProt P25961); test: cAMP GloSensor dose-response in GR-35 cells expressing rat PTHR-1; assay type: cell-based; conditions: Table 7; GR-35 cells, 12-16 minutes after ligand addition; mean ± SEM
T3 construct: expressed in transfected cells
T3 sequence (P25961 27-591): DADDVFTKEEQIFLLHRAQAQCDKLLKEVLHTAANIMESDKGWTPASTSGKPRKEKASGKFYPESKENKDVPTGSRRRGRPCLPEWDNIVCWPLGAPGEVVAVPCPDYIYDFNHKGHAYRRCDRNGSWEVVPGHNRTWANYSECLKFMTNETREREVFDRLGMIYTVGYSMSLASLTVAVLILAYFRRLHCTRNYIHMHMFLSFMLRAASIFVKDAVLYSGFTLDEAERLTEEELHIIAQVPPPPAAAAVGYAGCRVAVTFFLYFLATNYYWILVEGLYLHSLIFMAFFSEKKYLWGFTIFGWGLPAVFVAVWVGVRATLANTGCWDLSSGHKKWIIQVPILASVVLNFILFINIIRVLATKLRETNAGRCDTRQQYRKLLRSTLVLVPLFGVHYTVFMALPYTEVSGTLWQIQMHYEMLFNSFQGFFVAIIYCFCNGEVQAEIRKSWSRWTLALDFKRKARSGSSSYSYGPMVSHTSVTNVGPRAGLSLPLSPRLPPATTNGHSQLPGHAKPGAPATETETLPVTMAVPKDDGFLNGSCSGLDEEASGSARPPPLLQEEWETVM

RG form of human PTHR-1 = target: T4, RG form of human PTHR-1 (Homo sapiens, UniProt Q03431); test: Radio-ligand competition binding to RG form of human PTHR-1 (COS-7 membranes, 125I-M-PTH(1-15) tracer, high affinity Gαs mutant); conditions: Table 1; 125I-M-PTH(1-15) tracer, Gαs mutant; read-out: RG IC50, nM, Binding (hPTHR-1)
T4 construct: expressed in transfected cells; host or cells: COS-7
T4 sequence (Q03431 27-593): T2 sequence (Q03431 27-593)
From the text: Data are means (±SEM) of n≥4 experiments, each performed in duplicate.

PTH2R/PTH1R = test: cAMP response selectivity between PTH2R and PTH1R; assay type: cell-based; conditions: Table 16; most selective
From the text: Selected analogs containing beta-amino acid substitutions selectively signal through one or the other of the two receptors. Without being bound to any underling biological phenomenon or mechanism, PTHR-2 likely serves an alternative function to PTHR-1 as it is highly expressed in the central nervous system. In contrast, PTHR-1 is highly expressed in bone and kidney, but not in the CNS. The analogs disclosed herein are thus useful as therapeutic compounds that a specific agonists or antagonists of PTHR-1 and PTHR-2.

Question: What does the source list for CC[C@H](C)[C@H](NC(=O)[C@H](CCC(=O)O)NC(=O)[C@H](CO)NC(=O)[C@@H](NC(=O)[C@@H](N)CO)C(C)C)C(=O)N[C@@H](CCC(N)=O)C(=O)N[C@@H](CC(C)C)C(=O)N[C@@H](CCSC)C(=O)N[C@H]1CNC[C@@H]1C(=O)N[C@@H](CC(N)=O)C(=O)N[C@@H](CC(C)C)C(=O)NCC(=O)N[C@@H](CCCCN)C(=O)N[C@@H](Cc1c[nH]cn1)C(=O)N[C@@H](CC(C)C)C(=O)N[C@@H](CC(N)=O)C(=O)N[C@@H](CO)C(=O)N[C@@H](CCSC)C(=O)N[C@@H](CCC(=O)O)C(=O)N[C@@H](CCCNC(=N)N)C(=O)N[C@H](C(=O)N[C@@H](CCC(=O)O)C(=O)N[C@@H](Cc1c[nH]c2ccccc12)C(=O)N[C@@H](CC(C)C)C(=O)N[C@@H](CCCNC(=N)N)C(=O)N[C@@H](CCCCN)C(=O)N[C@@H](CCCCN)C(=O)N[C@@H](CC(C)C)C(=O)N[C@@H](CCC(N)=O)C(=O)N[C@@H](CC(=O)O)C(=O)N[C@H](C(=O)N[C@@H](Cc1c[nH]cn1)C(=O)N[C@@H](CC(N)=O)C(=O)N[C@@H](Cc1ccccc1)C(N)=O)C(C)C)C(C)C [APC(9)] (H-SVSEIQLM[X13]NLGKHLNSMERVEWLRKKLQDVHNF-NH2; N-terminus assumed)?
Answer: Fold PTH, nM (deINT PTHR1) (delNT PTHR1): 87; hPTHR1 EC50, nM (Means ± SEM) (WT human PTHR-1; Table 8, cAMP-inducing potency, N-terminal modifications): No activity

Question: Which Max (WT rat PTHR-1) does the source give for CC[C@H](C)[C@H](NC(=O)[C@H](CCC(=O)O)NC(=O)[C@H](CO)NC(=O)[C@@H](NC(=O)[C@@H](N)CO)C(C)C)C(=O)N[C@@H](CCC(N)=O)C(=O)N[C@@H](CC(C)C)C(=O)N[C@@H](CCSC)C(=O)N[C@@H](Cc1c[nH]cn1)C(=O)N[C@@H](CC(N)=O)C(=O)N[C@@H](CC(C)C)C(=O)NCC(=O)N[C@@H](CCCCN)C(=O)N[C@@H](Cc1c[nH]cn1)C(=O)N[C@@H](CC(C)C)C(=O)N[C@@H](CC(N)=O)C(=O)N[C@@H](CO)CC(=O)N[C@@H](CCSC)C(=O)N[C@@H](CCC(=O)O)C(=O)N[C@@H](CCCNC(=N)N)C(=O)N[C@H](CC(=O)N[C@@H](CCC(=O)O)C(=O)N[C@@H](Cc1c[nH]c2ccccc12)C(=O)N[C@@H](CC(C)C)C(=O)N[C@@H](CCCNC(=N)N)CC(=O)N[C@@H](CCCCN)C(=O)N[C@@H](CCCCN)C(=O)N[C@@H](CC(C)C)C(=O)N[C@@H](CCC(N)=O)CC(=O)N[C@@H](CC(=O)O)C(=O)N[C@H](C(=O)N[C@@H](Cc1c[nH]cn1)C(=O)N[C@@H](CC(N)=O)CC(=O)N[C@@H](Cc1ccccc1)C(N)=O)C(C)C)C(C)C [C5] here?
Answer: The Max was 48 ± 17 luminescence counts per second × 10−3.

Question: What about the EC50 (WT human PTHR-1; Table 1, GP-2.3 cells, read-out: cAMP (hPTHR-1) EC50) of the same compound?
Answer: The EC50 was 0.2 nM.

Question: What about the “cAMP (hPTHR-1) Max” value (WT human PTHR-1; Table 1, luminescence counts per second relative to PTH(1-34), 12-16 minutes after ligand addition) of the same compound?
Answer: The value was 1.01.

Question: And the Max (WT human PTHR-1; Table 6, GP-2.3 cells, 12-16 minutes after ligand addition, mean ± SEM)?
Answer: The Max was 219 ± 39 luminescence counts per second × 10^−3.

Question: And the IC50 (RG form of human PTHR-1)?
Answer: Its IC50 is 0.4 nM.

Question: With CC[C@H](C)[C@H](NC(=O)[C@H](CCC(=O)O)NC(=O)[C@H](CO)NC(=O)[C@@H](NC(=O)C[C@H](C)N)C(C)C)C(=O)N[C@@H](CCC(N)=O)C(=O)N[C@@H](CC(C)C)C(=O)N[C@@H](CCSC)C(=O)N[C@@H](Cc1c[nH]cn1)C(=O)N[C@@H](CC(N)=O)C(=O)N[C@@H](CC(C)C)C(=O)NCC(=O)N[C@@H](CCCCN)C(=O)N[C@@H](Cc1c[nH]cn1)C(=O)N[C@@H](CC(C)C)C(=O)N[C@@H](CC(N)=O)C(=O)N[C@@H](CO)C(=O)N[C@@H](CCSC)C(=O)N[C@@H](CCC(=O)O)C(=O)N[C@@H](CCCNC(=N)N)C(=O)N[C@H](C(=O)N[C@@H](CCC(=O)O)C(=O)N[C@@H](Cc1c[nH]c2ccccc12)C(=O)N[C@@H](CC(C)C)C(=O)N[C@@H](CCCNC(=N)N)C(=O)N[C@@H](CCCCN)C(=O)N[C@@H](CCCCN)C(=O)N[C@@H](CC(C)C)C(=O)N[C@@H](CCC(N)=O)C(=O)N[C@@H](CC(=O)O)C(=O)N[C@H](C(=O)N[C@@H](Cc1c[nH]cn1)C(=O)N[C@@H](CC(N)=O)C(=O)N[C@@H](Cc1ccccc1)C(N)=O)C(C)C)C(C)C [β^3Ala(1)] (H-[β3hA]VSEIQLMHNLGKHLNSMERVEWLRKKLQDVHNF-NH2) as the compound, how does the “Fold PTH, nM (deINT PTHR1)” value (delNT PTHR1) read?
Answer: Its value is 0.4.

Question: And the “Fold PTH, nM (hPTHR1)” value (WT human PTHR-1; Table 8)?
Answer: The value was 2.2.

Question: And the EC50 (WT human PTHR-1; Table 8, cAMP-inducing potency, N-terminal modifications, read-out: hPTHR1 EC50, nM (Means ± SEM))?
Answer: The EC50 was 0.2 ± 0.09 nM.

Question: CC[C@H](C)[C@H](NC(=O)[C@H](CCC(=O)O)NC(=O)[C@H](CO)NC(=O)[C@@H](NC(=O)[C@@H](N)CO)C(C)C)C(=O)N[C@@H](CCC(N)=O)CC(=O)N[C@@H](CC(C)C)C(=O)N[C@@H](CCSC)C(=O)N[C@@H](Cc1c[nH]cn1)C(=O)N[C@@H](CC(N)=O)C(=O)N[C@@H](CC(C)C)C(=O)NCC(=O)N[C@@H](CCCCN)C(=O)N[C@@H](Cc1c[nH]cn1)C(=O)N[C@@H](CC(C)C)C(=O)N[C@@H](CC(N)=O)C(=O)N[C@@H](CO)C(=O)N[C@@H](CCSC)C(=O)N[C@@H](CCC(=O)O)C(=O)N[C@@H](CCCNC(=N)N)C(=O)N[C@H](C(=O)N[C@@H](CCC(=O)O)C(=O)N[C@@H](Cc1c[nH]c2ccccc12)C(=O)N[C@@H](CC(C)C)C(=O)N[C@@H](CCCNC(=N)N)C(=O)N[C@@H](CCCCN)C(=O)N[C@@H](CCCCN)C(=O)N[C@@H](CC(C)C)C(=O)N[C@@H](CCC(N)=O)C(=O)N[C@@H](CC(=O)O)C(=O)N[C@H](C(=O)N[C@@H](Cc1c[nH]cn1)C(=O)N[C@@H](CC(N)=O)C(=O)N[C@@H](Cc1ccccc1)C(N)=O)C(C)C)C(C)C [β^3Gln(6)] was tested. Which “Fold PTH, nM (deINT PTHR1)” value (delNT PTHR1) did it give?
Answer: The value was 110.

Question: What about the “Fold PTH, nM (hPTHR1)” value (WT human PTHR-1; Table 8) of the same compound?
Answer: The value was 159.7.

Question: What about the “cAMP response PTH2R/PTH1R” value (PTH2R/PTH1R) of the same compound?
Answer: The value was 133.
